Test results reported in article PMC11997890, “In Vivo and In Vitro Pharmacokinetic Studies of a Dual Topoisomerase I/II Inhibitor” (ACS Pharmacology & Translational Science, 2025).
pIC50: −log10 of the molar value.

What was measured:
[1] = system: OvCar8, A2780, Igrov-1 cells; test: Metabolism in ovarian cancer cell culture supernatants (HPLC); format: in vitro ADME, human; settings: for total metabolism (sum of all detected metabolites as percentage of the substrate): supernatants of OvCar8, A2780, Igrov-1 after treatment
Procedure: After treatment, the supernatants of the cell cultures were collected in order to quantify metabolites by HPLC. In Figure 3 C, the total metabolism in % (as the sum of all detected metabolites as a percentage of the substrate) is shown in dependency of the respective treatment. Overall, P8-D6 is always the most metabolized substrate at ∼5%, followed by P8-D6 N-oxide at ∼2.6% and P8-D6 mono at ∼1%. […] In contrast to previous incubation with homogenized tissue (Figure ), P8-D6 was mostly metabolized to P8-DO (2.05%) and to a lesser extent to P8-D6 mono and P8-D6 N-oxide. P8-D6 mono was converted to P8-DO and less extensively metabolized to P8-D6 and a new unknown metabolite (0.10%). Due to the increased polarity and, therefore, decreased HPLC retention time, a nitrone would be thinkable. Such reactions have been described in the literature. − However, due to the very limited content of this metabolite, it could not be identified further. During incubation with P8-D6 N-oxide, P8-D6 features the major metabolite, while P8-D6 mono and P8-DO were formed to a lesser amount. The protein expression of Cyp3A4, mARC1 and 2, and FMO3 in the cell lines used was analyzed by Western blot (Figure 3 E).
(§1) The human ovarian cancer cell lines OvCar8, Igrov-1, and A2780, purchased from ATCC, were maintained in RPMI1640 medium, including L-glutamine supplemented with 10% fetal bovine serum and 60 IU/mL penicillin–streptomycin. Cells were grown at 37 °C and 5% CO2 in a humidified incubator and subcultivated at a confluency of 70–80%. Cell line authenticity was checked by STR profiling as described previously, and mycoplasma contamination was routinely investigated using MycoAlert (Lonza).

[2] = system: NCI-60 human tumor cell lines; test: NCI-60 DTP Human Tumor Cell Lines Screening; format: cell-based; settings: for GI50: Homo sapiens, NCI-60 panel
OvCar8 cells = test: 2D monolayer viability assay (ApoLive-Glo); format: cell-based; settings: Homo sapiens, OVCAR-8; OvCar8 2D monolayer, 48 h
Procedure: The efficacy of metabolites can have a significant impact on the efficacy of the drug. […] The therapeutic effect of P8-D6 mono and P8-D6 N-oxide was investigated in vitro in human ovarian cancer 2D monolayers and 3D spheroids (Figures and ). 48 h of treatment of the ovarian cancer cell lines (OvCar8, A2780, Igrov-1) with P8-D6 mono and P8-D6 N-oxide was compared to P8-D6 and cisplatin (study preparation scheme supplied as Figure S5). Both metabolites decreased viability in ovarian cancer cells in a 2D monolayer (Figure A, supplied as Figure S3 A,C).
as §1
For the measurements of viability and apoptosis, cells of approximately 8000/well were seeded in a Corning No. 3903 plate and treated with the corresponding drugs for 48 h. After treatment, apoptosis and cell viability assays were performed using an ApoLive-Glo Multiplex Assay Kit (Promega #G6410) according to the manufacturer’s instructions. Fluorescence and luminescence units were measured by using a microplate multimode reader (Spark, Tecan). Relative caspase activity was calculated as caspase activity divided by viability (normalized to control). […] All experiments were performed in biological triplicates. PBS was used as the negative control, and cisplatin and P8-D6 were used as the positive controls.

[3] = In vitro biotransformation of P8-D6 with pig liver fractions; format: in vitro ADME; settings: for formation of metabolite from P8-D6: 1 mM P8-D6, 150 min
Procedure: P8-D6 (1 mM) was incubated with postnuclear supernatant (PNS), microsomes, or S9 reaction mixture of various tissue samples (liver, kidney, lung, spleen, and colon) from different donor species (pigs, mice, rats, and humans) for 150 min (study preparation scheme supplied as Figure S5). The commercial human and rat enzymes were subjected to quality control by the supplier. Three phase I metabolites were identified. […] LC-MS and NMR spectroscopic data for the metabolites are given in Supporting Information. Based on the structural characteristics, the metabolites were named as follows: P8-DO (4), P8-D6 N-oxide (6), and P8-D6 mono (8). All metabolites were synthesized to confirm the postulated structure (chapter Synthesis of Metabolites). The extent of metabolism during in vitro incubation was highly dependent on the species (pig > mouse > rat > human) (Figure ).
For all phase I metabolism studies (except cell cultures), a 0.3 mL reaction mixture consisting of 1 mM substrate (P8-D6, P8-D6 mono, P8-D6 N-oxide), 1 mM NADPH as a cofactor, 0.67 mg/mL protein from homogenized tissue or subcellular fractions, respectively (except recombinant enzymes, where 0.5 mg/mL was used), and PBS buffer (pH 7.4) was used. All experiments were performed in biological triplicates. The FDA Guidance for Industry highlights 7 CYP isoenzymes (1A2, 2B6, 2C8, 2C9, 2C19, 2D6, and 3A4/5) which routinely should be tested for metabolism during drug development. Table S1 presents an overview of the tissue material and species as well as the CYP enzymes used in this study. All reactions were carried out at 37 °C in a shaking water bath for 150 min before they were stopped with 0.3 mL of an ice-cold mixture of acetonitrile/methanol (1:1). The suspension was vortexed for 30 s and centrifuged at 15000 g for 5 min, and finally, 10 μL of the supernatant was injected into the HPLC. Control samples were prepared with buffer instead of either protein/tissue, cofactor, or substrate.

| SMILES | total metabolism (sum of all detected metabolites as percentage of the substrate) [1] [%] | GI50 [2] [nM] | pIC50 (OvCar8 cells) | formation of metabolite from P8-D6 ([3]; pig liver microsomes) [%] | extent of formation lower than P8-D6 N-oxide ([3]; porcine liver microsomes) [fold] | metabolite formed from P8-D6 ([1]; OvCar8 supernatant) [%] | efficacy against cancer ([2]; NCI 60 Cell Screening) | formation of metabolite from P8-D6 ([3]; pig liver PNS) [%] | formation of metabolite from P8-D6 ([3]; pig liver S9-fraction) [%] |
| --- | --- | --- | --- | --- | --- | --- | --- | --- | --- |
| COc1cc(-c2cc3ccncc3c3nc(OCCN(C)C)c4cnccc4c23)cc(OC)c1OC [P8-D6, 6-(N,N-dimethyl-2-aminoethoxy)-11-(3,4,5-trimethoxyphenyl)-pyrido[3,4-c][1,9]-phenanthroline] | ~5 | 49 | 6.57 |  |  |  |  |  |  |
| CNCCOc1nc2c3cnccc3cc(-c3cc(OC)c(OC)c(OC)c3)c2c2ccncc12 [P8-D6 mono] | ~1 | 37 | 6.51 | 1.31 | 21.9 |  |  |  |  |
| COc1cc(-c2cc3ccncc3c3[nH]c(=O)c4cnccc4c23)cc(OC)c1OC [P8-DO] |  |  |  | 0.13 |  | 2.05 | ineffective against cancer |  |  |
| COc1cc(-c2cc3ccncc3c3nc(OCC[N+](C)(C)[O-])c4cnccc4c23)cc(OC)c1OC [P8-D6 N-oxide] | ~2.6 |  | 5.70 | 28.67 |  |  |  | 6.88 | 7.58 |
